Key:
Format in all cases: cell-based, human
[1] = tested on: PBMCs from vaccinated cancer patients; experiment: Establishment of T-cell lines with peptide-pulsed APCs
From the text: Patients-PBMCs were used from two patients with prostate cancer enrolled in a previously described clinical trial of PSA-TRICOM vaccine in combination with […] al., Lancet Oncol., 13: 501-8 (2012)). An institutional review board of the National Institutes of Health (NIH) Clinical Center had approved the procedures, and informed consent was obtained in accordance with the Declaration of Helsinki. […] Cells were restimulated every 7 days.

T-C6A T-cell line = experiment: Detection of cytokines, T-cell line generated with C6A
Protocol: (§1) Cells were restimulated every 7 days.
Detection of cytokines—Autologous B cells pulsed with peptides at different concentrations (25, 12.5, 6.25 and 3, 13, and 1.56 μg/ml) were incubated with MUC1-specific T-cell lines at a 2:1 ratio for 24 hours.

T-C7A T-cell line = experiment: Detection of cytokines, T-cell line generated with agonist C7A; conditions: 24 hours with peptide-pulsed B-cells
Protocol: as §1
(§2) Detection of cytokines—Autologous B cells pulsed with peptides at different concentrations (25, 12.5, 6.25 and 3, 13, and 1.56 μg/ml) were incubated with MUC1-specific T-cell lines at a 2:1 ratio for 24 hours. The supernatants were analyzed for IFN-γ by ELISA (Invitrogen, Frederick, Md.).
(§3) Each cell line was then stimulated for 24 hours with B-cells pulsed with either the native C7 or agonist C7A peptide, and cytokine levels in the supernatant were analyzed.

T-C7 T-cell line = experiment: Detection of cytokines, T-cell line generated with native C7; conditions: 24 hours with peptide-pulsed B-cells
Protocol: as §1, §2, §3

[2] = T-cell line T-C6A stimulated with peptide
[3] = stimulation of the T-cell line generated with C6A

Row | Sequence | generation of T-cell lines using APCs pulsed with the peptide [1] | GM-CSF (T-C7A T-cell line) [pg/mL/2.5 × 10^5 T cells] | IFN-γ (T-C7A T-cell line) [pg/mL/2.5 × 10^5 T cells] | IL-2 (T-C7A T-cell line) [pg/mL/2.5 × 10^5 T cells] | IL-6 (T-C7A T-cell line) [pg/mL/2.5 × 10^5 T cells] | IL-8 (T-C7A T-cell line) [pg/mL/2.5 × 10^5 T cells] | IL-10 (T-C7A T-cell line) [pg/mL/2.5 × 10^5 T cells] | TNFα (T-C7A T-cell line) [pg/mL/2.5 × 10^5 T cells] | GM-CSF (T-C7 T-cell line) [pg/mL/2.5 × 10^5 T cells] | IFN-γ (T-C7 T-cell line) [pg/mL/2.5 × 10^5 T cells] | IL-2 (T-C7 T-cell line) [pg/mL/2.5 × 10^5 T cells] | IL-6 (T-C7 T-cell line) [pg/mL/2.5 × 10^5 T cells] | IL-8 (T-C7 T-cell line) [pg/mL/2.5 × 10^5 T cells] | IL-10 (T-C7 T-cell line) [pg/mL/2.5 × 10^5 T cells] | TNFα (T-C7 T-cell line) [pg/mL/2.5 × 10^5 T cells] | other results
1 | KYHPMSEYAL [Peptide C6A] | could be generated | – | – | – | – | – | – | – | – | – | – | – | – | – | – | GM-CSF (T-C6A T-cell line; [2]): 1277 pg/mL/2.5 × 10^5 T cells; IFN-γ (T-C6A T-cell line; [2]): 3060 pg/mL/2.5 × 10^5 T cells; IL-2 (T-C6A T-cell line; [2]): 3630 pg/mL/2.5 × 10^5 T cells; IL-6 (T-C6A T-cell line; [2]): 7.6 pg/mL/2.5 × 10^5 T cells; IL-8 (T-C6A T-cell line; [2]): 11.8 pg/mL/2.5 × 10^5 T cells; IL-10 (T-C6A T-cell line; [2]): 16.4 pg/mL/2.5 × 10^5 T cells; TNFα (T-C6A T-cell line; [2]): 1021 pg/mL/2.5 × 10^5 T cells; GM-CSF level (T-C6A T-cell line; [3]): > 10,000 pg/mL/10^5 cells; IFN-γ level (T-C6A T-cell line; [3]): 2,651 pg/mL/10^5 cells; IL-2 level (T-C6A T-cell line; [3]): < 50 pg/mL/10^5 cells; IL-6 level (T-C6A T-cell line; [3]): < 50 pg/mL/10^5 cells; IL-8 level (T-C6A T-cell line; [3]): > 10,000 pg/mL/10^5 cells; IL-10 level (T-C6A T-cell line; [3]): < 50 pg/mL/10^5 cells; IL-12 level (T-C6A T-cell line; [3]): < 50 pg/mL/10^5 cells; TNF-α level (T-C6A T-cell line; [3]): 372 pg/mL/10^5 cells
2 | KYTNPAVAL [Peptide C7A] | could be generated | 910 | 2000 | <2.4 | 40 | 360 | 375 | 70 | 300 | 1279 | <2.4 | 7.7 | 7.3 | 45 | 30 | –
3 | SYTNPAVAA [Peptide C7, native MUC1-C HLA-A24 peptide, position 502-510, reference compound] | could be generated | 215 | 680 | <2.4 | <2.4 | 112 | 92 | 30 | 237 | 750 | <2.4 | 6.4 | 6.8 | 25 | 21 | –
4 | TYHPMSEYPT [Peptide C6, native MUC1-C HLA-A24 peptide, position 462-471, reference compound] | unsuccessful | – | – | – | – | – | – | – | – | – | – | – | – | – | – | –

Source: patent US11732017B2, “HLA-A24 agonist epitopes of MUC1-C oncoprotein and compositions and methods of use” (The USA, as represented by the Secretary, Dept. of Health …, priority 2013, dated 2023)
